Source: patent publication US9427471B2, “Method and improved pharmaceutical composition for enhancing transdermal delivery of PDE-5 inhibitor” (Tritech Biopharmaceuticals Co., Ltd., priority 2011, dated 2016)

Key:
[1] = format: in vitro ADME; settings: Sprague-Dawley, rat, 1 % (wt %)
Description: The permeation test was carried out using in vitro Franz diffusion cell with a diffusion area of 0.785 cm^2. A piece of rat (Sprague-Dawley) skin tissue was mounted between the two half-cells and fastened with a clamp. Aliquots of 1% (wt %) vardenafil with or without the addition of the enhancer of this disclosure, such as 0.3% (wt %) cocamidopropyl betaine, 1% (wt %) sodium lauroamphoacetate, 1% (wt %) isostearamidopropyl morpholine lactate, 1% (wt %) quaternium-60 or dipropyl glycol, were applied to the Donor compartment to start the experiment. The receiver compartment was filled with PBS and the temperature was held at 37° C. Samples were taken at certain time intervals and assayed by HPLC.

[2] = In vivo skin permeation analysis (applied to rabbit ear, vardenafil in blood); settings: gel formulations (about 0.5 ml, blood drawn after 1 hour) or skin patch (6 hours) with enhancer(s) applied to left ear of rabbit, blood from right ear artery; FIG. 2
Description: In vivo skin permeation tests were carried out using the gel formulations of example 2.1 and the skin patch of example 2.2. Briefly, small aliquots (about 0.5 ml) of gel formulations #1 to 4 or a small piece of the skin patch (3 cm×5 cm×0.15 cm) was applied to the left ear of a rabbit, after certain period of time, 1 ml of blood was drawn from the rabbit's right ear artery and analyzed for the amount of vardenafil. Specifically, the blood was drawn after 1 hour when gel formulation was used; and 6 hours when skin patch was applied. Results are illustrated in FIG. 2.

increase of the amount of vardenafil in the receiving side of Franz Diffusion chamber as compared with control [1]: 0.5-2 folds
increase of the amount of vardenafil found in the blood stream as compared with control [2]: 4 to 5 folds
Compound: CCCc1nc(C)c2c(=O)[nH]c(-c3cc(S(=O)(=O)N4CCN(CC)CC4)ccc3OCC)nn12 [vardenafil]
